Results on 15 molecules are retold here after patent US6576639B1, “Compounds for the inhibition of farnesyl protein transferase” (Schering Corporation, priority 1997, dated 2003).

Data set [1] has as its target farnesyl protein transferase (Homo sapiens, UniProt P49354+P49356). Nature of the data set: FPT IC50 (inhibition of farnesyl protein transferase, in vitro enzyme assay, per WO 95/10516). The format is biochemical. Conditions: for IC50: in vitro enzyme assay. How it is done: (§1) FPT IC50 (inhibition of farnesyl protein transferase, in vitro enzyme assay) was determined following the assay procedures described in WO 95/10516, published Apr. 20, 1995. GGPT IC50 (inhibition of geranylgeranyl protein transferase, in vitro enzyme assay), COS Cell IC50 (Cell-Based Assay), Cell Mat Assay, and anti-tumor activity (in vivo anti-tumor studies) could be determined by the assay procedures described in WO 95/10516. The disclosure of WO 95/10516 is incorporated herein by reference thereto.

The test system of a further data set is COS Cell. In words: COS Cell IC50 (Cell-Based Assay, per WO 95/10516). The method, then:
as §1

Another data set has as its system Human tumor cells. Nature of the data set: Soft Agar Assay (anchorage-independent growth). The format is cell-based. The method, then: Anchorage-independent growth is a characteristic of tumorigenic cell lines. Human tumor cells can be suspended in growth medium containing 0.3% agarose and an indicated concentration of a farnesyl transferase inhibitor. The solution can be overlayed onto growth medium solidified with 0.6% agarose containing the same concentration of farnesyl transferase inhibitor as the top layer. After the top layer is solidified, plates can be incubated for 10-16 days at 37° C. under 5% CO2 to allow colony outgrowth. After incubation, the colonies can be stained by overlaying the agar with a solution of MTT (3-[4,5-dimethyl-thiazol-2-yl]-2,5-diphenyltetrazolium bromide, Thiazolyl blue) (1 mg/mL in PBS). Colonies can be counted and the IC50's can be determined.

Another data set addresses T1, human FPT (Homo sapiens, UniProt P49354+P49356).
T1 construct: made in house; host or cells: Baculovirus/Sf-9
In words: FPT pM IC50 Assay. Format: biochemical. Conditions: 30 pM human FPT, biotin-CVLS substrate, 37° C., 1 hour. How it is done: The enzymatic reaction is performed in 50 mM Tris, 5 μM ZnCl2, 5 mM MgCl2, 0.01% Triton X-100, 5 mM dithiolthreitol (DTT), pH 7.7 (Buffer R) at 37° C. for 1 hour. The purified human FPT (>95% pure) was derived from a Baculovirus/Sf-9 expression system. The peptide substrate used was biotin-CVLS (SynPep Corp., Dublin, Calif.) and (1-^3H)-FPP (21.5 Ci/mmol) was obtained from New England Nuclear Life Science Products (Boston, Mass.). Compounds were initially dissolved to a final concentration of 4 mg/ml in 100% DMSO and then to 0.25 μg/ml in 100% DMSO. Subsequent dilutions of the compound were performed in Buffer R.
The enzymatic reaction is performed in a final volume of 100 μl. Reactions are carried out in a 96 well plate format. […] The reaction is stopped using 150 μl of the Stop Solution consisting of 1.3 mg/ml scintillation beads (strepavidin-coated scintillation proximity beads from Amersham (Arlington Heights, Ill.), 250 mM EDTA, pH 8.0 and 0.5% BSA. The radioactivity is measured after 20 minutes at room temperature.
Compounds are evaluated for their ability to inhibit the reaction by measuring the concentration-dependent percent inhibition of the reaction. […] The enzymatic activity was recorded by measuring the CPM/well using a Wallac 1204 Betaplate BS liquid scintillation counter. […]

Sequence of farnesyl protein transferase (P49356 whole entry, one chain of several): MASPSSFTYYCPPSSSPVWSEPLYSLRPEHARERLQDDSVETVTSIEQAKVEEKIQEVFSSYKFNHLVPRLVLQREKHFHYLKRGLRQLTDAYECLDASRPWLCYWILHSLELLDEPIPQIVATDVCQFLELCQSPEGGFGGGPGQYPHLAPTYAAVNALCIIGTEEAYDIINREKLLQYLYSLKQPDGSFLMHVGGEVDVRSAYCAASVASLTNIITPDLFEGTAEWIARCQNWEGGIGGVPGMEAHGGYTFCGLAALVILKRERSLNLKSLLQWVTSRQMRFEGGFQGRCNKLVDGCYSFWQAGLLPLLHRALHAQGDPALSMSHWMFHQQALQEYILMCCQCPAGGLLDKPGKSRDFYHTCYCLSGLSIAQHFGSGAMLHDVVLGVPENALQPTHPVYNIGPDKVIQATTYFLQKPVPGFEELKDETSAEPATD

The term IC50 denotes the concentration at which inhibition is half-maximal. On to `NC(=O)N1CCC(CC(=O)N2CCN(C3c4ccc(Cl)cc4CCc4cc(Br)c[n+]([O-])c43)CC2)CC1` (racemic) [Example 9, (±) 4-[2-[(3-Bromo-8-chloro-6,11-dihydro-5H-benzo[5,6]cyclohepta [1,2-b]pyridin-11-yl)-1-piperazinyl]-2-oxoethyl]-1-piperidinecarboxamide N1-oxide], for which the IC50 in data set [1] is 23 nM.

Take `NC(=O)N1CCC(CC(=O)N2CCC(C3c4c(Br)cc(Cl)cc4CCc4cc(Br)c[n+]([O-])c43)CC2)CC1` (centres unmarked) [Compound 54.0]: in data set [1] (@150 nM), the FPT percent inhibition is listed as 42%.

Turning to `NC(=O)N1CCC(CC(=O)N2CCC([C@@H]3c4c(Br)cc(Cl)cc4CCc4cc(Br)c[n+]([O-])c43)CC2)CC1` [Example 2, (+)-4-[2-[4-(3,10-Dibromo-8-chloro-6,11-dihydro-5H-benzo [5,6]cyclohepta[1,2-b]pyridin-11(R)-YL)-1-piperidinyl]-2-oxoethyl]-1-piperidinecarboxamide N-oxide], the IC50 in data set [1] was found to be 1.4 nM; in the data set on COS Cell, 9 nM; in the data set on Human tumor cells it was 45 nM.

`O=C(Cc1cc[n+]([O-])cc1)N1CCC([C@@H]2c3c(Br)cc(Cl)cc3CCc3cc(Br)c[n+]([O-])c32)CC1` [Example 3]: the figures for the IC50 (in data set [1]; with COS Cell; with Human tumor cells) were 0.7 nM, 11.5 nM and 25 nM, respectively.

On to `NC(=O)N1CCC(CC(=O)N2CCC([C@H]3c4ccc(Cl)c(Br)c4CCc4cc(Br)c[n+]([O-])c43)CC2)CC1` [Example 4], for which the IC50 in data set [1] is 18 nM. In other words, the double-digit nanomolar range.

Regarding `O=C(Cc1cc[n+]([O-])cc1)N1CCC([C@H]2c3ccc(Cl)c(Br)c3CCc3cc(Br)c[n+]([O-])c32)CC1` [Example 5, (−)-4-(8-Chloro-3,7-Dibromo-6,11-Dihydro-5H-Benzo[5,6]Cyclohepta [1,2-b]Pyridin-11-yl)-1-(4-Pyridinylacetyl)Piperidine N1-Oxide, N4-Oxide], the half-inhibitory concentration (IC50) in data set [1] was found to be 28 nM.

Take `O=C(Cc1cc[n+]([O-])cc1)N1CCC(C2c3ccc(Cl)cc3C=Cc3cc(Br)c[n+]([O-])c32)CC1` (centres unmarked) [Example 6, 4-(3-Bromo-8-Chloro-11H-Benzo[5.6]Cyclohepta[1,2-b]Pyridi-11-yl) -1-(4-Pyridinylacetyl)Piperidine N1-Oxide, N4-Oxide]: the IC50 in data set [1] amounted to 63 nM.

On to `O=C(Cc1cc[n+]([O-])cc1)N1CCN([C@@H]2c3ccc(Cl)cc3CCc3cc(Br)c[n+]([O-])c32)CC1` [Example 7], for which the 50% inhibitory concentration (IC50) in data set [1] is 6.3 nM; against human FPT it was 440 pM; in the data set with COS Cell, 85 nM; with Human tumor cells it was 183 nM.

`O=C(Cc1cc[n+]([O-])cc1)N1CCN([C@H]2c3ccc(Cl)cc3CCc3cc(Br)c[n+]([O-])c32)CC1` [Example 8]: the FPT percent inhibition in data set [1] (@ 170 (concentration unit not given)) was 39% @ 170.

`NC(=O)N1CCC(CC(=O)N2CCN([C@@H]3c4ccc(Cl)cc4CCc4cc(Br)c[n+]([O-])c43)CC2)CC1` [Example 10, (+) 4-[2-[(3-Bromo-8-chloro-6,11-dihydro-5H-benzo[5,6]cyclo-hepta [1,2-b]pyridin-11R-yl)-1-piperazinyl]-2-oxoethyl]-1-piperidinecarboxamide N1-oxide]: the IC50 in data set [1] is 12 nM.

On to `NC(=O)N1CCC(CC(=O)N2CCN([C@H]3c4ccc(Cl)cc4CCc4cc(Br)c[n+]([O-])c43)CC2)CC1` [Example 11, (−) 4-[2-[(3-Bromo-8-chloro-6,11-dihydro-5H-benzo[5,6]cyclo-hepta [1,2-b]pyridin-11S-yl)-1-piperazinyl]-2-oxoethyl]-1-piperidinecarboxamide N1-oxide], for which the FPT percent inhibition in data set [1] (@ 160 (concentration unit not given)) is reported as 24% @ 160.

For orientation: melting point means the temperature of the solid-liquid transition. The molecule `NC(=O)N1CCC(CC(=O)N2CCC([C@@H]3c4ccc(Cl)cc4CCc4cc(Br)c[n+]([O-])c43)CC2)CC1` [Example 12] registered a melting point of 146.8 to 147.4 °C. This molecule gave a half-inhibitory concentration (IC50) in data set [1] of 35 nM.

In the case of `NC(=O)N1CCC(CC(=O)N2CCC([C@H]3c4ccc(Cl)cc4CCc4cc(Br)c[n+]([O-])c43)CC2)CC1` [Example 13], the melting point fell in the range of 120 to 121 °C. The same molecule gave a concentration for half-maximal inhibition (IC50) in data set [1] of 174 nM.

`O=C(Cc1cc[n+]([O-])cc1)N1CCC([C@H]2c3ccc(Cl)cc3C=Cc3cc(Br)c[n+]([O-])c32)CC1` [Example 14]: the melting point was in the range of 109 to 110 °C. Also, the FPT percent inhibition in data set [1] (@ 180 (concentration unit not given)) is on record as 25% @ 180.

For `O=C(Cc1cc[n+]([O-])cc1)N1CCC([C@@H]2c3ccc(Cl)cc3C=Cc3cc(Br)c[n+]([O-])c32)CC1` [Example 15], the melting point fell in the range of 125.5 to 126.3 °C. Besides, the IC50 in data set [1] worked out at 19 nM.
